# Measured values reported in patent US20240360122A1, “POLYMORPHIC FORMS AND SALTS OF A GLP-1R AGONIST” (Terns (Suzhou) Biotechnology Co., Ltd., priority 2023, published 2024).
# Experiment: Approximate solubility in different solvents at RT
# Format: physicochemical
# Procedure: For each experiment, approximately 2 mg of sample was added into a 3-mL glass vial. Corresponding solvents were then added stepwise (50/50/200/700/1000 μL) into the vials until the solids were dissolved visually or a total volume of 2 mL was reached. Solubility results summarized in Table 64 to Table 66 were used to guide the solvent selection in polymorph screening design.
smiles,measurement,setting,value
N#Cc1ccc(COc2cccc(C3CCN(Cc4nc5ccc(C(=O)O)cc5n4Cc4cncs4)CC3)n2)c(F)c1 [Freeform Type D],Approximate solubility,"1,4-Dioxane, RT",S < 1.1 mg/mL
same,Approximate solubility,"2-MeTHF, RT",S < 1.0 mg/mL
same,Approximate solubility,"Anisole, RT",S < 1.0 mg/mL
same,Approximate solubility,"CHCl3, RT",S < 1.1 mg/mL
same,Approximate solubility,"CPME, RT",S < 0.9 mg/mL
same,Approximate solubility,"DMSO, RT",S > 44.0 mg/mL
same,Approximate solubility,"H2O, RT",S < 1.1 mg/mL
same,Approximate solubility,"IPA, RT",S < 1.1 mg/mL
same,Approximate solubility,"MTBE, RT",S < 1.1 mg/mL
same,Approximate solubility,"Toluene, RT",S < 1.0 mg/mL
same,Approximate solubility,"n-Heptane, RT",S < 1.0 mg/mL
